Assays:
mice with hyperuricemia = experiment: yeast extract feed-induced hyperuricemia model in KM mice; type: in vivo, KunMing (KM) mice; settings: 30 mg/kg intragastric daily for 9 weeks; for serum UA levels vs model group: P<0.001, P<0.001, P<0.01; for serum creatinine level vs model group / serum urea nitrogen level vs model group: P<0.001; for serum urea nitrogen level vs model group: FIG. 2B; for liver index vs model group: FIG. 3B, P<0.001, P<0.05, P<0.01; for renal pathological morphology (HE staining): renal tissue, x200; for kidney index vs model group: FIG. 3A, P<0.05 (synthetic compound), P<0.001 (nobiletin)
Description: Specific pathogen free (SPF) grade KunMing (KM) mice, male, aged 5-6 weeks, weighing 22-25 g, are provided by Medical Experimental Animal Center of Guangdong Province with an animal qualification certificate number: SCXK (Yue) 2022-0002. The mice are raised in plastic cages, with free diet and drinking water. The indoor temperature of the plastic cages is (22±2)° C., and a relative humidity is maintained at 55%±5%. The lights are turned on and turned off for 12 hours, respectively. After quarantine and adaptation for one week, relevant experiments are conducted. The experimental plan is reviewed and approved by the Animal Welfare Ethics Committee of Zhongke Industry Holdings (Shenzhen) Co., Ltd. (application number: 20220082), and the operation and process of animal experiments follow the “Guidelines for the use of experimental animals in teaching” of the Chinese Society of Experimental Animals. Customized dietary feeds: 15% of yeast extract feeds, in compliance with regulations of GB13078 and GB14924.2, are provided by Jiangsu Synergy Pharmaceutical Biotechnology Co., Ltd. Production license: Su Si Zheng (2019) 01008. After 2 weeks of adaptive feeding in the plastic cages, the SPF grade KM mice are randomly divided into five groups: normal group (Control), model group (Model), synthetic compound group (PJW), myricetin group (Myricetin), and nobiletin group (Nobiletin). The dosage of each individual test medicine group is 30 milligrams per kilogram (mg/kg), and the medicines are dissolved in a 0.5% carboxymethyl cellulose sodium solution with a gavage volume of 10 milliliters per kilogram (mL/kg). Except for the normal group fed with basic feed, the other groups are fed with 15% of the yeast extract feeds for modeling. The normal group and the model group are intragastrically administered an equal amount of physiological saline daily, and the other groups are intragastrically administered with the corresponding medicine daily for 9 weeks. At the end of the experiment, that is, at the end of the 9th week of administration, the KM mice are fasted for 12 hours, then the KM mice are anesthetized with the isoflurane to take off the eyeballs from the KM mice for blood collection, followed by placing the collected blood to stand in the room temperature for 1 hour. After the standing, the blood is centrifuged at 3500 revolutions per minute (rpm/min) for 15 minutes to obtain centrifuged solutions, respectively, then serums of the centrifuged solution are separated to detect the levels of the uric acid, the creatinine, the urea nitrogen. The KM mice are sacrificed by dislocation of cervical vertebra after collecting blood, livers and kidneys are dissected from the KM mice and weighed to calculate indexes of the livers and the kidneys, an organ index of the formula is as follows: organ index=organ weight (g)/body mass (g)×100%. Then the livers and the kidneys are quickly packed, one portion of the packed sample is fixed with 4% paraformaldehyde solution for HE staining, and the other portion of the packed sample is stored at −80° C. in a refrigerator for later use. The renal tissues fixed with 4% paraformaldehyde from the kidneys are taken to be dehydrated with ethanol, embedded in paraffin, and sliced. After staining with hematoxylin-eosin, the pathological changes of renal tissues are observed under an upright optical microscope. All data are statistically analyzed using a GraphPad Prism 7.00 software, and the data are presented as a mean value±a standard error (standard deviation±standard error of the mean abbreviated as SD±SEM). Multiple group comparisons are conducted using a one-way Analysis of Variance (ANOVA), and pairwise comparisons between groups are conducted using a Dunnett's test. P<0.05 indicates a statistically significant difference.

[1] = patients with hyperuricemia; Wang Yong et al. 2010; cited from earlier work
[2] = biological target: T1, organic anion transporter 4 (OAT4) (Homo sapiens, UniProt Q9NSA0); settings: OAT4 overexpressed monoclonal cell line; Wang Ze et al. 2019; read-out: half-maximal inhibitory concentration (IC50) on OAT4; cited from earlier work
T1 sequence (Q9NSA0 1-550): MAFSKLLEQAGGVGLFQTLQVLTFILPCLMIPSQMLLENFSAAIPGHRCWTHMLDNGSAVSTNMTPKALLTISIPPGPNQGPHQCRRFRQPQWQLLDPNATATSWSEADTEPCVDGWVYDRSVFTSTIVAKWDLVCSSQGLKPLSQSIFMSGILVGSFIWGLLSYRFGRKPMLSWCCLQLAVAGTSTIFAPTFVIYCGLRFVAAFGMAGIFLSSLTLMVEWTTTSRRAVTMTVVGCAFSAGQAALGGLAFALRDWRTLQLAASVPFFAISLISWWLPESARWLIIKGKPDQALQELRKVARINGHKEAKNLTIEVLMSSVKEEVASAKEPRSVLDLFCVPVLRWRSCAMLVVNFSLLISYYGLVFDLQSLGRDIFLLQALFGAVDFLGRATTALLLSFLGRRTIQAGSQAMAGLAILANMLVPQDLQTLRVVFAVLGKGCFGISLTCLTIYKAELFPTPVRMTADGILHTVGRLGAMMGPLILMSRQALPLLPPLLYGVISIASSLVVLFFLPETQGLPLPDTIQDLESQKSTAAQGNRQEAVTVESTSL

O=c1c(O)c(-c2cc(O)c(O)c(O)c2)oc2cc(O)cc(O)c12 [myricetin]
serum UA levels vs model group (mice with hyperuricemia; FIG. 1): significantly reduced
serum creatinine level vs model group (mice with hyperuricemia; FIG. 2A): significantly reduced
serum urea nitrogen level vs model group (mice with hyperuricemia): significantly reduced
liver index vs model group (mice with hyperuricemia): significantly reduced
renal pathological morphology (HE staining) (mice with hyperuricemia; FIG. 4): improve renal injury
serum uric acid (UA) levels in patients [1]: significantly reduce

COc1ccc(-c2cc(=O)c3c(OC)c(OC)c(OC)c(OC)c3o2)cc1OC [nobiletin]
serum UA levels vs model group (mice with hyperuricemia; FIG. 1): significantly reduced
serum creatinine level vs model group (mice with hyperuricemia; FIG. 2A): significantly reduced
serum urea nitrogen level vs model group (mice with hyperuricemia): significantly reduced
kidney index vs model group (mice with hyperuricemia): significantly reduced
liver index vs model group (mice with hyperuricemia): significantly reduced
renal pathological morphology (HE staining) (mice with hyperuricemia; FIG. 4): improve renal injury
IC50 [2]: 556 nM

COc1cc(OC)c2c(=O)c(OCCCC(=O)Oc3c(-c4ccc(OC)c(OC)c4)oc4c(OC)c(OC)c(OC)c(OC)c4c3=O)c(-c3cc(OC)c(OC)c(OC)c3)oc2c1 [synthetic compound]
serum UA effect compared with monomer groups (mice with hyperuricemia; FIG. 1): better than that of each monomer group
serum UA levels vs model group (mice with hyperuricemia; FIG. 1): significantly reduced
effect on creatinine compared with monomer medicines (mice with hyperuricemia; FIG. 2A): better than that of monomer medicines
serum creatinine level vs model group (mice with hyperuricemia; FIG. 2A): significantly reduced
serum urea nitrogen level vs model group (mice with hyperuricemia): significantly reduced
kidney index vs model group (mice with hyperuricemia): significantly reduced
liver index vs model group (mice with hyperuricemia): significantly reduced
organ index effect compared with monomer groups (mice with hyperuricemia; FIGS. 3A-3B): better than that of each monomer group
improvement of renal pathological morphology compared with monomer medicines (mice with hyperuricemia; HE staining, FIG. 4): better than that of monomer medicines
renal pathological morphology (HE staining) (mice with hyperuricemia; FIG. 4): improve renal injury

— US20240383881A1, “SYNTHETIC COMPOUND OF MYRICETIN AND NOBILETIN, AND PREPARATION METHOD THEREFOR” (The Second People's Hospital of Shenzhen (Shenzhen …, priority 2023, published 2024)
